{"source": "patent US10442835B2", "about": "“Water-soluble rapamycin derivatives” (Zhejiang Hisun Pharmaceutical Co., Ltd., priority 2016, dated 2019)", "key": {"[1]": {"assay": "Body weight of DU145 tumor nude mice;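 note: dosing started once xenografts reached 150-200 mm^3, with mice randomized into three groups, loss of body weight served as an indirect sign of drug toxicity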", "conditions": "for Body Weight, mean value / Decrease rate (body weight) / Decrease in body weight: 3×/w, 4 w", "quoted_text": "DU145 (the 3rd generation) tumors in the rapid proliferation stage inoculated in the axilla of nude mice were cut into tumor lumps with a size of 1 mm*1 mm*1 mm and then were inoculated subcutaneously to the right limb of nude mice using a trocar under a sterile condition. When the tumors grow to 150-200 mm^3, the mice were randomly divided into three groups and then administrated with the compounds for 4 weeks. The major diameter (a) and the minor diameter (b) of the tumors were measured 2 or 3 times a week. The tumor volume (TV) was calculated with the following equation: TV=½×a×b^2. Tumors were stripped and weighted at Day 28 and the tumor inhibition rate was calculated using the following equation: (tumor weight of control−tumor weight of experimental group)/tumor weight of control×100%.\nThe nude mice were divided into 3 groups with 4 mice per group when the tumors averagely grew to about 185-200 mm^3, depending on the growth regularity of the tumor and the dosage regimen.\nG1: positive drug group: Everolimus (5 mg/kg, qw, 4 w, 3×/w); administration route: intragastrical administration;"}, "[2]": {"system": "human breast cancer cell MDA-MB-435", "assay": "In vitro activity assay, growth of MDA-MB-435", "type": "cell-based", "conditions": "48 h", "description": "The anti-tumor activity and toxicity of the compounds according to the present invention can be assayed through standard operational procedures of pharmacological experiment. The experiments carried out herein can test the inhibitory effect of the compounds according to the present invention on the growth of human liver cancer cell HepG2, lung cancer cell NCI460, prostate cancer cell DU145, prostate cancer cell PC3, and human breast cancer cell MDA-MB-435. The operational procedure used is briefly described below by taking the inhibitory activity assay against human liver cancer cell HepG2 as an example.\nThe operational procedure for the assay is as follows:\n1. Cells after being trypsinized were inoculated in 96-well plates at a concentration of 10^4 cells/well, and allowed to grow in a medium with a final volume of 200 μL. The 96-well plates after inoculation are allowed to stand for 24 hours at 37° C., in order to allow the cells to adhere to the surface of the wells.\n2. The medium was removed by carefully pipetting without disturbing the cell monolayer. 200 μL Fresh medium was added into each well. It is arranged to make it possible to collect samples from enough wells to run the experiments in triplicate.\n3. The compounds to be tested according to the present invention were dissolved into 10 μL phosphate buffered solution (PBS) and incubated for 48 h at 37° C.\n4. In the last 6 h of incubation, cells in each well of the 96-well plates were labeled by 1 microcurie T thymidine (New England Nuclear thymidine), by adding 10 μL PBS containing 1 microcurie T thymidine (which was added into the PBS on the day of collecting the samples for test). The 96-well plates were then returned to the incubator and incubated for the last 6 h.\n5. Without disturbing the cell monolayer, the radioactive medium was removed by pipetting. Then 50 μL of BRL 10×trypsin was added to each well, followed by incubation at 37° C. for 10 minutes or until the cell monolayer was detached from the bottom (or the wall) of each well. Samples were collected on glass-fiber diskettes using a Skatron 96-well cell harvester. Cells depositing on the glass-fiber diskettes were counted in a Wallac Betaplate counter."}, "[3]": {"system": "human lung cancer cell NCI-H460", "assay": "In vivo inhibitory activity against NCI-H460 tumor in nude mice", "conditions": "everolimus 5 mg/kg, compound I-1 6.8 mg/kg, qw 4×"}, "[4]": {"conditions": "Day 3, G2 compound I-1 3.4 mg/kg tail vein injection"}, "[5]": {"conditions": "Day 3, G3 compound I-1 1.7 mg/kg tail vein injection"}, "[6]": {"conditions": "Day 7, G2 compound I-1 3.4 mg/kg tail vein injection"}, "[7]": {"conditions": "Day 7, G3 compound I-1 1.7 mg/kg tail vein injection"}, "[8]": {"conditions": "Day 10, G2 compound I-1 3.4 mg/kg tail vein injection"}, "[9]": {"conditions": "Day 10, G3 compound I-1 1.7 mg/kg tail vein injection"}, "[10]": {"conditions": "Day 14, G2 compound I-1 3.4 mg/kg tail vein injection"}, "[11]": {"conditions": "Day 14, G3 compound I-1 1.7 mg/kg tail vein injection"}, "[12]": {"conditions": "Day 17, G2 compound I-1 3.4 mg/kg tail vein injection"}, "[13]": {"conditions": "Day 17, G3 compound I-1 1.7 mg/kg tail vein injection"}, "[14]": {"conditions": "Day 21, G2 compound I-1 3.4 mg/kg tail vein injection"}, "[15]": {"conditions": "Day 21, G3 compound I-1 1.7 mg/kg tail vein injection"}, "[16]": {"conditions": "Day 24, G2 compound I-1 3.4 mg/kg tail vein injection"}, "[17]": {"conditions": "Day 24, G3 compound I-1 1.7 mg/kg tail vein injection"}, "[18]": {"conditions": "Day 28, G2 compound I-1 3.4 mg/kg tail vein injection"}, "[19]": {"conditions": "Day 28, G3 compound I-1 1.7 mg/kg tail vein injection"}}, "note": "“And” between values parts separate entries of the source, which are not always exact repeats. Equal entries are not always repeated.", "data": [{"smiles": "CO[C@H]1C[C@@H]2CC[C@@H](C)[C@@](O)(O2)C(=O)C(=O)N2CCCC[C@H]2C(=O)OC([C@H](C)C[C@@H]2CC[C@@H](OCCOC(=O)CSC[C@H](NC(=O)CC[C@H](N)C(=O)O)C(=O)NCC(=O)O)[C@H](OC)C2)CC(=O)[C@H](C)/C=C(\\C)[C@@H](O)[C@@H](OC)C(=O)[C@H](C)C[C@@H](C)\\C=C/C=C/C=C/1C", "note": "(stereo partly shown) [Compound I-1]", "values": [{"measurement": "Body Weight, mean value", "setting": "[1]; Day 0, G2 compound I-1 3.4 mg/kg tail vein injection", "result": 25.30, "unit": "g"}, {"measurement": "Body Weight, mean value", "setting": "[1]; Day 0, G3 compound I-1 1.7 mg/kg tail vein injection", "result": 26.86, "unit": "g"}, {"measurement": "Body Weight, mean value", "setting": "[1]; [4]", "result": 25.92, "unit": "g"}, {"measurement": "Decrease rate (body weight)", "setting": "[1]; [4]", "result": "−2.45", "unit": "%"}, {"measurement": "Body Weight, mean value", "setting": "[1]; [5]", "result": 27.32, "unit": "g"}, {"measurement": "Decrease rate (body weight)", "setting": "[1]; [5]", "result": "−1.70", "unit": "%"}, {"measurement": "Decrease in body weight", "setting": "[1]; Day 3 vs Day 0, G2 compound I-1 3.4 mg/kg tail vein injection", "result": -0.62, "unit": "g"}, {"measurement": "Decrease in body weight", "setting": "[1]; Day 3 vs Day 0, G3 compound I-1 1.7 mg/kg tail vein injection", "result": -0.46, "unit": "g"}, {"measurement": "Body Weight, mean value", "setting": "[1]; [6]", "result": 26.13, "unit": "g"}, {"measurement": "Decrease rate (body weight)", "setting": "[1]; [6]", "result": "−3.29", "unit": "%"}, {"measurement": "Body Weight, mean value", "setting": "[1]; [7]", "result": 27.17, "unit": "g"}, {"measurement": "Decrease rate (body weight)", "setting": "[1]; [7]", "result": "−1.16", "unit": "%"}, {"measurement": "Decrease in body weight", "setting": "[1]; Day 7 vs Day 0, G2 compound I-1 3.4 mg/kg tail vein injection", "result": -0.83, "unit": "g"}, {"measurement": "Decrease in body weight", "setting": "[1]; Day 7 vs Day 0, G3 compound I-1 1.7 mg/kg tail vein injection", "result": -0.31, "unit": "g"}, {"measurement": "Body Weight, mean value", "setting": "[1]; [8]", "result": 26.15, "unit": "g"}, {"measurement": "Decrease rate (body weight)", "setting": "[1]; [8]", "result": "−3.37", "unit": "%"}, {"measurement": "Body Weight, mean value", "setting": "[1]; [9]", "result": 27.18, "unit": "g"}, {"measurement": "Decrease rate (body weight)", "setting": "[1]; [9]", "result": "−1.18", "unit": "%"}, {"measurement": "Decrease in body weight", "setting": "[1]; Day 10 vs Day 0, G2 compound I-1 3.4 mg/kg tail vein injection", "result": -0.85, "unit": "g"}, {"measurement": "Decrease in body weight", "setting": "[1]; Day 10 vs Day 0, G3 compound I-1 1.7 mg/kg tail vein injection", "result": -0.32, "unit": "g"}, {"measurement": "Body Weight, mean value", "setting": "[1]; [10]", "result": 26.59, "unit": "g"}, {"measurement": "Decrease rate (body weight)", "setting": "[1]; [10]", "result": "−5.12", "unit": "%"}, {"measurement": "Body Weight, mean value", "setting": "[1]; [11]", "result": 27.69, "unit": "g"}, {"measurement": "Decrease rate (body weight)", "setting": "[1]; [11]", "result": "−3.10", "unit": "%"}, {"measurement": "Decrease in body weight", "setting": "[1]; Day 14 vs Day 0, G2 compound I-1 3.4 mg/kg tail vein injection", "result": -1.30, "unit": "g"}, {"measurement": "Decrease in body weight", "setting": "[1]; Day 14 vs Day 0, G3 compound I-1 1.7 mg/kg tail vein injection", "result": -0.83, "unit": "g"}, {"measurement": "Body Weight, mean value", "setting": "[1]; [12]", "result": 26.34, "unit": "g"}, {"measurement": "Decrease rate (body weight)", "setting": "[1]; [12]", "result": "−4.12", "unit": "%"}, {"measurement": "Body Weight, mean value", "setting": "[1]; [13]", "result": 27.81, "unit": "g"}, {"measurement": "Decrease rate (body weight)", "setting": "[1]; [13]", "result": "−3.54", "unit": "%"}, {"measurement": "Decrease in body weight", "setting": "[1]; Day 17 vs Day 0, G2 compound I-1 3.4 mg/kg tail vein injection", "result": -1.04, "unit": "g"}, {"measurement": "Decrease in body weight", "setting": "[1]; Day 17 vs Day 0, G3 compound I-1 1.7 mg/kg tail vein injection", "result": -0.95, "unit": "g"}, {"measurement": "Body Weight, mean value", "setting": "[1]; [14]", "result": 26.84, "unit": "g"}, {"measurement": "Decrease rate (body weight)", "setting": "[1]; [14]", "result": "−6.09", "unit": "%"}, {"measurement": "Body Weight, mean value", "setting": "[1]; [15]", "result": 28.10, "unit": "g"}, {"measurement": "Decrease rate (body weight)", "setting": "[1]; [15]", "result": "−4.61", "unit": "%"}, {"measurement": "Decrease in body weight", "setting": "[1]; Day 21 vs Day 0, G2 compound I-1 3.4 mg/kg tail vein injection", "result": -1.54, "unit": "g"}, {"measurement": "Decrease in body weight", "setting": "[1]; Day 21 vs Day 0, G3 compound I-1 1.7 mg/kg tail vein injection", "result": -1.24, "unit": "g"}, {"measurement": "Body Weight, mean value", "setting": "[1]; [16]", "result": 26.58, "unit": "g"}, {"measurement": "Decrease rate (body weight)", "setting": "[1]; [16]", "result": "−5.08", "unit": "%"}, {"measurement": "Body Weight, mean value", "setting": "[1]; [17]", "result": 28.12, "unit": "g"}, {"measurement": "Decrease rate (body weight)", "setting": "[1]; [17]", "result": "−4.68", "unit": "%"}, {"measurement": "Decrease in body weight", "setting": "[1]; Day 24 vs Day 0, G2 compound I-1 3.4 mg/kg tail vein injection", "result": -1.29, "unit": "g"}, {"measurement": "Decrease in body weight", "setting": "[1]; Day 24 vs Day 0, G3 compound I-1 1.7 mg/kg tail vein injection", "result": -1.26, "unit": "g"}, {"measurement": "Body Weight, mean value", "setting": "[1]; [18]", "result": 26.96, "unit": "g"}, {"measurement": "Decrease rate (body weight)", "setting": "[1]; [18]", "result": "−6.57", "unit": "%"}, {"measurement": "Body Weight, mean value", "setting": "[1]; [19]", "result": 28.27, "unit": "g"}, {"measurement": "Decrease rate (body weight)", "setting": "[1]; [19]", "result": "−5.26", "unit": "%"}, {"measurement": "Decrease in body weight", "setting": "[1]; Day 28 vs Day 0, G2 compound I-1 3.4 mg/kg tail vein injection", "result": -1.66, "unit": "g"}, {"measurement": "Decrease in body weight", "setting": "[1]; Day 28 vs Day 0, G3 compound I-1 1.7 mg/kg tail vein injection", "result": -1.41, "unit": "g"}, {"measurement": "toxic and side effect", "setting": "[1]; injection administration of compound I-1 (3.4 and 1.7 mg/kg), judged from body weight", "result": "does not result in obvious toxic and side effect"}, {"measurement": "IC50", "setting": "[2]", "result": "55.345 ± 0.005", "unit": "µM"}, {"measurement": "Mean Volume of Tumor", "setting": "[3]; Day 0", "result": 195.1545, "unit": "mm^3"}, {"measurement": "Mean Volume of Tumor", "setting": "[3]; Day 3", "result": 232.4297, "unit": "mm^3"}, {"measurement": "Mean Volume of Tumor", "setting": "[3]; Day 7", "result": 273.2138, "unit": "mm^3"}, {"measurement": "Mean Volume of Tumor", "setting": "[3]; Day 10", "result": 360.0897, "unit": "mm^3"}, {"measurement": "Mean Volume of Tumor", "setting": "[3]; Day 14", "result": 506.8288, "unit": "mm^3"}, {"measurement": "Mean Volume of Tumor", "setting": "[3]; Day 17", "result": 612.8810, "unit": "mm^3"}, {"measurement": "Mean Volume of Tumor", "setting": "[3]; Day 21", "result": 934.2806, "unit": "mm^3"}, {"measurement": "Mean Volume of Tumor", "setting": "[3]; Day 24", "result": 1089.1761, "unit": "mm^3"}, {"measurement": "Tumor Inhibition Rate", "setting": "[3]; Day 28, by tumor weight", "result": "68% and 68.29%"}]}]}
